Tested on: L5178Y
Assay: Cytotoxicity against mouse L5178Y cells at 10 ug/ml by MTT assay
Assay type: functional

**Q.** Which Activity does the source give for Cc1cc(=O)c2c(C)cc(O)cc2o1 here?
**A.** The Activity was 95%.

**Q.** With CC[C@H](C)[C@@H]1NC(=O)C(C(C)=O)=C1O [TENUAZONIC ACID] as the compound, how does the Activity read?
**A.** The Activity was 57.9%.

**Q.** How did the Activity turn out when COc1cc(O)c2c(=O)oc3cc(OS(=O)(=O)O)cc(C)c3c2c1 was run?
**A.** Its Activity is 89%.

Reference: ChEMBL document CHEMBL1157406, “Cytotoxic metabolites from the fungal endophyte Alternaria sp. and their subsequent detection in its host plant Polygonum senegalense” (J Nat Prod, 2008)
